Laboratory results: paper PMC12514842, “Ligand binding Pro‐miscuity of acylpeptide hydrolase, structural analysis of a detoxifying serine hydrolase” (Protein Science : A Publication of the Protein Society, 2025)

How the values were obtained:
[1] = target: T1, pAPEH (porcine liver acylpeptide hydrolase, acylaminoacyl-peptidase, AAP) (Sus scrofa, UniProt P19205); assay type: binding
T1 construct: gene APEH; native, purified from porcine liver; homotetramer; catalytic Ser587, Asp675, His707
T1 sequence (P19205 1-732): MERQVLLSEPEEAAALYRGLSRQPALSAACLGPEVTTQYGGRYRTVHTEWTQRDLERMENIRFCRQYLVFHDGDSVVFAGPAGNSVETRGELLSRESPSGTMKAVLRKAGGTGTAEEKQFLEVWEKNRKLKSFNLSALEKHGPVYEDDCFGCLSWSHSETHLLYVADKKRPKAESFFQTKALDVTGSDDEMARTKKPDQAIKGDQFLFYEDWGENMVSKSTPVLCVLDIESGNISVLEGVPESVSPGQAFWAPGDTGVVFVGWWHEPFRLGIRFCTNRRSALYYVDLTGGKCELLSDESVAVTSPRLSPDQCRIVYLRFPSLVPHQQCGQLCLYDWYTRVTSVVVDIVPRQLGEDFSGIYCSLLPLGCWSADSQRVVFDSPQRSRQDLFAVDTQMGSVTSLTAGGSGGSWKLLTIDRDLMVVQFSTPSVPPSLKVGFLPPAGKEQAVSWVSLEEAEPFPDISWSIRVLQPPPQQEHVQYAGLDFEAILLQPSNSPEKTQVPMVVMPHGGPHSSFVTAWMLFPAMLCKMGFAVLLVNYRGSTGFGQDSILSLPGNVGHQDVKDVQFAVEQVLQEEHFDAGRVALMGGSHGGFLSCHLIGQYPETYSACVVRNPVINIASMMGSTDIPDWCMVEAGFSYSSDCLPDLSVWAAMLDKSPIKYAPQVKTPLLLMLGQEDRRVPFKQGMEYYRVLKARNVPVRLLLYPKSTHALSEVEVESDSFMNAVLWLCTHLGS

[2] = target: T1, pAPEH (porcine liver acylpeptide hydrolase, acylaminoacyl-peptidase, AAP); experiment: cryo-EM structure of complex ([…] A); assay type: binding; details: covalent; Ser587 and His707; 10-fold molar excess, pH 7.5, 37 °C, 1 h
[3] = target: T1, pAPEH (porcine liver acylpeptide hydrolase, acylaminoacyl-peptidase, AAP); assay type: binding; remark: listed apart in the source
ApAPEH (ApAAP) = target: T2, ApAPEH (ApAAP) (Aeropyrum pernix, UniProt Q9YBQ2); experiment: hydrolysis of p-nitroanilide substrate; assay type: biochemical
T2 construct: gene APE_1547.1; produced by the authors; details only in Data S1 chapter II
T2 sequence (Q9YBQ2 whole entry): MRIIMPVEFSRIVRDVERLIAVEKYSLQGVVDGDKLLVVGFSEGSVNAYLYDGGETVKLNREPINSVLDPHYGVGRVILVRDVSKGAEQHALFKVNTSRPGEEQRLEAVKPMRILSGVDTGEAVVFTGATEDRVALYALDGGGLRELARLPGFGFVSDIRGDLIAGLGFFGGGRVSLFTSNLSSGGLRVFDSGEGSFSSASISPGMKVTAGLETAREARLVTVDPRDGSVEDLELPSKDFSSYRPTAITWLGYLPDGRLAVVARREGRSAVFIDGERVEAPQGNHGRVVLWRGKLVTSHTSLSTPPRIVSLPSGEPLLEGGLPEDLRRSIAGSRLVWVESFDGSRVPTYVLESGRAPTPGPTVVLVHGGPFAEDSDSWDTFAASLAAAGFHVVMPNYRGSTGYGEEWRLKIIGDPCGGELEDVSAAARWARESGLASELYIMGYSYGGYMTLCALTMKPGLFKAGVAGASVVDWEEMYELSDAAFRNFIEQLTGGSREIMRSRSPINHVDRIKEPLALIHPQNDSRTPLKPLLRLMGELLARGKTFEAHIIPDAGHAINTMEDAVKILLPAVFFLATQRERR

PhAPEH (PhAAP) = target: T3, PhAPEH (PhAAP) (Pyrococcus horikoshii, UniProt O58323); experiment: hydrolysis of p-nitroanilide substrate; assay type: biochemical
T3 construct: gene PH0594; produced by the authors; details only in Data S1 chapter II
T3 sequence (O58323 1-622): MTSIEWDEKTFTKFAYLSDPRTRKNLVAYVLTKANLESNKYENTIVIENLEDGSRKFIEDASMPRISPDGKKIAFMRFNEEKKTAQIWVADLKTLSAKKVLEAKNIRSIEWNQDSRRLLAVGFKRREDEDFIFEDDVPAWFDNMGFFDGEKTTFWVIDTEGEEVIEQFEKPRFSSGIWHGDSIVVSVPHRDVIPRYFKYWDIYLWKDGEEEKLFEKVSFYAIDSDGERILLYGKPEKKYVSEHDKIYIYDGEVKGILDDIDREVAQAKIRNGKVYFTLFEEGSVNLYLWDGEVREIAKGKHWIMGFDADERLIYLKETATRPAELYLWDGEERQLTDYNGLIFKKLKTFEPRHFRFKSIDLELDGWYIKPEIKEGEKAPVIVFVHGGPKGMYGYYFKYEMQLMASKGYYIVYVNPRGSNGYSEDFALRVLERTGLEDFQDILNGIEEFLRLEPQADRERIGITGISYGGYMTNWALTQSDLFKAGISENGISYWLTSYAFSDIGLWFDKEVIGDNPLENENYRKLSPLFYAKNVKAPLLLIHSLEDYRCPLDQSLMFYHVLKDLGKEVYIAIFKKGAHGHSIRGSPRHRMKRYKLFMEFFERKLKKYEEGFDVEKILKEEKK

NCCc1ccc(S(=O)(=O)F)cc1 [ligand 3, 4-(2-aminoethyl)benzenesulfonyl fluoride]
cryo-EM structure of complex (2.78 A) [1]: thus the inhibitor directly coordinates to the active Ser

CC(=O)N[C@@H](C)C(=O)CCl [ligand 1, acetyl-alanyl-chloromethyl ketone]
cryo-EM structure of complex (3.19 A) [2]: bound covalently to the active Ser587 and His707 (Figure 2a) of each monomer

COP(=O)(OC)OC=C(Cl)Cl [ligand 2, dichlorvos]
cryo-EM structure of complex (2.65 A) [3]: Dimethoxy‐phosphate (DMP) residue of dichlorvos is bound covalently to the active Ser587

CC(=O)N[C@@H](CC(C)C)C(=O)Nc1ccc([N+](=O)[O-])cc1 [Ac-Leu-pNA]
hydrolysis of p-nitroanilide substrate (ApAPEH (ApAAP)): archaeal variants are quite selective toward their specific substrate Ac‐Leu‐pNA
hydrolysis of p-nitroanilide substrate (PhAPEH (PhAAP)): archaeal variants are quite selective toward their specific substrate Ac‐Leu‐pNA
